Results taken from BindingDB's records for patent US20250313563 (The Broad Institute, 2025).
pIC50: −log10 of the molar value. Values joined by “and” are separate entries in the source; they are usually repeats but may differ in a detail not shown here. Equal values may be shown once.

Assays:
[1] = target: Glycogen synthase kinase-3 beta (Homo sapiens, UniProt P49841); assay: TR-FRET Assay
Outline: (§1)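 TR-FRET readout: streptavidin-d2 (40 nM in added detection mix) plus Tb-anti-pSer641 Ab (2 nM in mix). Steps were 30 min compound preincubation, kinase reaction, then EDTA stop.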

[2] = target: Glycogen synthase kinase-3 alpha (Homo sapiens, UniProt P49840); assay: TR-FRET Assay
Chain of Glycogen synthase kinase-3 alpha (P49840 whole entry): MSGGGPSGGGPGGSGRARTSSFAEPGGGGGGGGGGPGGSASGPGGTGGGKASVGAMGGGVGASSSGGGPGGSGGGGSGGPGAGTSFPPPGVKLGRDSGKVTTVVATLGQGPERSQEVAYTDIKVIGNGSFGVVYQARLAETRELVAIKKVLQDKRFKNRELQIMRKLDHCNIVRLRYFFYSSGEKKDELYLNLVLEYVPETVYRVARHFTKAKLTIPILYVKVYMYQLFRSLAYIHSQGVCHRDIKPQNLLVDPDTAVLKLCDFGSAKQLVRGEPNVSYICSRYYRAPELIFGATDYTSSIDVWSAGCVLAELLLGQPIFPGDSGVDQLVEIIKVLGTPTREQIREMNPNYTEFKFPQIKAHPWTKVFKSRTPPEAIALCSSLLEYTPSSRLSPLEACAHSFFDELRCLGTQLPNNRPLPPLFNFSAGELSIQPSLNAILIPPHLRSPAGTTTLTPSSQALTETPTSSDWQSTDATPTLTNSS
Outline: as §1

Chain of Glycogen synthase kinase-3 beta (P49841 whole entry): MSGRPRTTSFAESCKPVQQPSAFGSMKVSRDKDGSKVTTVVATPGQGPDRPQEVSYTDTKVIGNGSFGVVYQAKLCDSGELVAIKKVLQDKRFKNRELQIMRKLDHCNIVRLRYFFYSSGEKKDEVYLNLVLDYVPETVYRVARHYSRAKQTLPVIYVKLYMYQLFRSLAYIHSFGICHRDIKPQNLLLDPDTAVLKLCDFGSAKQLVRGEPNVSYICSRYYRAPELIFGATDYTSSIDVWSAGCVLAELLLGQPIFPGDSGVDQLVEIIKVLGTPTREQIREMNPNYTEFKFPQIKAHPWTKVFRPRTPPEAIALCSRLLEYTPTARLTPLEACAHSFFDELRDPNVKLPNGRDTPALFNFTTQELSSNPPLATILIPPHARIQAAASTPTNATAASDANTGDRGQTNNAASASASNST

| SMILES | pIC50 [1] | pIC50 [2] |
| --- | --- | --- |
| CC1(C)CC(=O)C2=C(NC3=C(CN=N3)C23CCN(S(=O)(=O)c2ccccc2C(F)F)CC3)[C@@H]1F [US20250313563, Compound 951846] | 6.00 to 7.00 | > 7.00 |
| CC[C@@]1(c2cccc(-c3cnn(Cc4cccc(C(F)(F)F)c4)c3)c2)C2=CN=NC2NC2=C1C(=O)NC(C)(C)C2 (stereo not given in full) [US20250313563, Compound 951848] | 6.00 to 7.00 | > 7.00 |
| CC1(C)CC(=O)C2=C(C1)NC1=C(CN=N1)[C@]21CCN(S(=O)(=O)c2cccc(F)c2)C1 [US20250313563, Compound 951861] | 6.00 to 7.00 | 6.00 to 7.00 |
| CC1(C)CC(=O)C2=C(C1)NC1=C(CN=N1)[C@@]21CCN(S(=O)(=O)c2cccc(F)c2)C1 [US20250313563, Compound 951862] | > 7.00 | > 7.00 |
| Cc1cccc(S(=O)(=O)N2CC[C@@]3(C2)C2=C(N=NC2)NC2=C3C(=O)CC(C)(C)C2)c1 [US20250313563, Compound 951863] | 6.00 to 7.00 | 6.00 to 7.00 |
| Cc1cccc(S(=O)(=O)N2CC[C@]3(C2)C2=C(N=NC2)NC2=C3C(=O)CC(C)(C)C2)c1 [US20250313563, Compound 951864] | > 7.00 and 5.30 to 6.00 | > 7.00 |
| CC[C@]1(c2cccc(C(F)(F)F)c2)C2=CN=NC2NC2=C1C(=O)N(c1cc(C)n(C)n1)CC2 (stereo not given in full) [US20250313563, Compound 951939] | 6.00 to 7.00 | > 7.00 |
| CC[C@@]1(c2cccc(Oc3ncccn3)c2)C2=C(CC(C)(C)NC2=O)NC2N=NC(F)=C21 (stereo not given in full) [US20250313563, Compound 951944] | < 5.30 | 5.30 to 6.00 |
| CC[C@]1(c2cccc(C(F)F)c2)C2=C(CC(C)(C)NC2=O)NC2N=NC(C(F)(F)F)=C21 (stereo not given in full) [US20250313563, Compound 951946] | 5.30 to 6.00 | 6.00 to 7.00 |
| CC[C@]1(c2cccc(Oc3ncccn3)c2)C2=C(CC(C)(C)NC2=O)NC2N=NC(F)=C21 (stereo not given in full) [US20250313563, Compound 951949] | 6.00 to 7.00 and < 5.30 | > 7.00 and 6.00 to 7.00 |
| CC[C@@]1(c2cccc(C(F)(F)F)c2)C2=CN=NC2NC2=C1C(=O)N(c1cc(C)n(C)n1)CC2 (stereo not given in full) [US20250313563, Compound 951954] | < 5.30 | < 5.30 |
| CC[C@@]1(c2cccc(-c3cnn(-c4ccncn4)c3)c2)C2=CN=NC2NC2=C1C(=O)NC(C)(C)C2 (stereo not given in full) [US20250313563, Compound 952016] | 5.30 to 6.00 | 6.00 to 7.00 |
| CC[C@@]1(c2cccc(-c3cnn(CCc4ccccc4)c3)c2)C2=CN=NC2NC2=C1C(=O)NC(C)(C)C2 (stereo not given in full) [US20250313563, Compound 952017] | 6.00 to 7.00 | > 7.00 |
| CC[C@@]1(c2cccc(-c3cc(C(F)(F)F)nn3C)c2)C2=CN=NC2NC2=C1C(=O)NC(C)(C)C2 (stereo not given in full) [US20250313563, Compound 952018] | 5.30 to 6.00 | 6.00 to 7.00 |
| CC[C@@]1(c2cccc(-c3cnn4c3OCCC4)c2)C2=CN=NC2NC2=C1C(=O)NC(C)(C)C2 (stereo not given in full) [US20250313563, Compound 952019] | 6.00 to 7.00 | > 7.00 |
| CC[C@@]1(c2cccc(-c3cnn(CCN4CCCC4)c3)c2)C2=CN=NC2NC2=C1C(=O)NC(C)(C)C2 (stereo not given in full) [US20250313563, Compound 952022] | 5.30 to 6.00 | 6.00 to 7.00 |
| CC[C@@]1(c2cccc(-c3cc(C4CCCC4)nn3C)c2)C2=CN=NC2NC2=C1C(=O)NC(C)(C)C2 (stereo not given in full) [US20250313563, Compound 952023] | 5.30 to 6.00 | 6.00 to 7.00 |
| CC[C@@]1(c2cccc(-c3cnn(-c4cccnc4)c3)c2)C2=CN=NC2NC2=C1C(=O)NC(C)(C)C2 (stereo not given in full) [US20250313563, Compound 952024] | < 5.30 | 6.00 to 7.00 |
| CC[C@@]1(c2cccc(-c3ccncc3C(F)(F)F)c2)C2=CN=NC2NC2=C1C(=O)NC(C)(C)C2 (stereo not given in full) [US20250313563, Compound 952025] | > 7.00 and 5.30 to 6.00 | > 7.00 |
| CC[C@@]1(c2cccc(-c3cnn(-c4cnccn4)c3)c2)C2=CN=NC2NC2=C1C(=O)NC(C)(C)C2 (stereo not given in full) [US20250313563, Compound 952207] | 5.30 to 6.00 | 6.00 to 7.00 |
| CC[C@@]1(c2cccc(-c3cnn(CC(=O)N(C)C)c3)c2)C2=CN=NC2NC2=C1C(=O)NC(C)(C)C2 (stereo not given in full) [US20250313563, Compound 952208] | < 5.30 | 6.00 to 7.00 |
| CC[C@@]1(c2cccc(-c3c([N+](=O)O)c(C)nn3C)c2)C2=CN=NC2NC2=C1C(=O)NC(C)(C)C2 (stereo not given in full) [US20250313563, Compound 952209] | > 7.00 | > 7.00 |
| CC[C@]1(c2cccc(N(C)c3ncccn3)c2)C2=C(N=NC2)NC2=C1C(=O)C(C)(C)C2 [US20250313563, Compound 952212] | 6.00 to 7.00 and < 5.30 | > 7.00 and 6.00 to 7.00 |

| SMILES | pIC50 [1] | pIC50 [2] |
| --- | --- | --- |
| CC[C@@]1(c2cccc(C(F)(F)F)c2)C2=CN=NC2NC2=C1C(=O)N(c1cnn(C)c1C)CC2 (stereo not given in full) [US20250313563, Compound 952257] | 6.00 to 7.00 | > 7.00 |
| CC[C@]1(c2cccc(-c3c(C#N)cnn3C)c2)C2=C(CC(C)(C)NC2=O)NC2N=NC(C)=C21 (stereo not given in full) [US20250313563, Compound 952410] | > 7.00 and 5.30 to 6.00 | > 7.00 and 6.00 to 7.00 |
| CC[C@@]1(c2cccc(-c3cc(-c4ccccc4)nn3C(C)C)c2)C2=CN=NC2NC2=C1C(=O)NC(C)(C)C2 (stereo not given in full) [US20250313563, Compound 952411] | < 5.30 | 5.30 to 6.00 |
| CC1(C)CC(=O)C2=C(C1)NC1=C(CN=N1)[C@@]21CC[C@H](C(F)(F)F)C1 [US20250313563, Compound 952434] | 6.00 to 7.00 | 6.00 to 7.00 |
| CC1(C)CC(=O)C2=C(C1)NC1=C(CN=N1)[C@]21CC[C@H](C(F)(F)F)C1 [US20250313563, Compound 952435] | 6.00 to 7.00 | > 7.00 |
| CC1(C)CC(=O)C2=C(C1)NC1=C(CN=N1)[C@@]21CC[C@@H](C(F)(F)F)C1 [US20250313563, Compound 952436] | > 7.00 and 5.30 to 6.00 | > 7.00 and 5.30 to 6.00 |
| CC1(C)CC(=O)C2=C(C1)NC1=C(CN=N1)[C@]21CC[C@@H](C(F)(F)F)C1 [US20250313563, Compound 952437] | 6.00 to 7.00 | 6.00 to 7.00 |
| CC[C@]1(c2cccc(C(F)(F)F)c2)C2=CN=NC2NC2=C1C(=O)N(c1cn(C)c(C)n1)CC2 (stereo not given in full) [US20250313563, Compound 952478] | < 5.30 | 5.30 to 6.00 |
| CC[C@@]1(c2cccc(C(F)(F)F)c2)C2=CN=NC2NC2=C1C(=O)N(c1cn(C)c(C)n1)CC2 (stereo not given in full) [US20250313563, Compound 952479] | < 5.30 | < 5.30 |
| CCC1(c2cccc(-c3ccnc4c3CCC4)c2)C2=C(N=NC2)NC2=C1C(=O)C(C)(C)C2 (stereo not given) [US20250313563, Compound 952557] | 6.00 to 7.00 | > 7.00 |
| CCc1cc(-c2cccc([C@]3(CC)C4=CN=NC4NC4=C3C(=O)NC(C)(C)C4)c2)n(C)n1 (stereo not given in full) [US20250313563, Compound 952561] | 6.00 to 7.00 | 6.00 to 7.00 |
| CC[C@@]1(c2cccc(-c3c(F)cncc3OC)c2)C2=C(N=NC2)NC2=C1C(=O)C(C)(C)C2 [US20250313563, Compound 952562] | < 5.30 | 5.30 to 6.00 |
| CC[C@@]1(c2cccc(-c3cc(C)nc4c3cnn4C)c2)C2=CN=NC2NC2=C1C(=O)NC(C)(C)C2 (stereo not given in full) [US20250313563, Compound 952563] | < 5.30 | 5.30 to 6.00 |
| CC[C@]1(c2cccc(-c3c(F)cncc3OC)c2)C2=C(N=NC2)NC2=C1C(=O)C(C)(C)C2 [US20250313563, Compound 952564] | > 7.00 and 5.30 to 6.00 | > 7.00 and 6.00 to 7.00 |
| CC[C@@]1(c2cccc(-c3cnn4ccncc34)c2)C2=CN=NC2NC2=C1C(=O)NC(C)(C)C2 (stereo not given in full) [US20250313563, Compound 952565] | 6.00 to 7.00 and < 5.30 | > 7.00 and 5.30 to 6.00 |
| CC[C@@]1(c2cccc(-c3cnn(-c4ccccn4)c3)c2)C2=CN=NC2NC2=C1C(=O)NC(C)(C)C2 (stereo not given in full) [US20250313563, Compound 952566] | 5.30 to 6.00 | 6.00 to 7.00 |
| CC[C@]1(c2cccc(C(F)(F)F)c2)C2=CN=NC2NC2=C1C(=O)N(c1cscn1)CC2 (stereo not given in full) [US20250313563, Compound 952629] | 6.00 to 7.00 | > 7.00 |
| CC[C@]1(c2cccc(C(F)(F)F)c2)C2=CN=NC2NC2=C1C(=O)N(c1ccsc1)CC2 (stereo not given in full) [US20250313563, Compound 952630] | 6.00 to 7.00 | > 7.00 |
| CC[C@@]1(c2cccc(C(F)(F)F)c2)C2=CN=NC2NC2=C1C(=O)N(c1ccsc1)CC2 (stereo not given in full) [US20250313563, Compound 952636] | < 5.30 | < 5.30 |
| CC[C@@]1(c2cccc(C(F)(F)F)c2)C2=CN=NC2NC2=C1C(=O)N(c1cscn1)CC2 (stereo not given in full) [US20250313563, Compound 952638] | < 5.30 | < 5.30 |
| CCC1(c2cccc(-c3ccnc4c3CCCC4)c2)C2=C(N=NC2)NC2=C1C(=O)C(C)(C)C2 (stereo not given) [US20250313563, Compound 952752] | 6.00 to 7.00 | > 7.00 |
| CC[C@@]1(c2cccc(-c3ccnc(OC)c3Cl)c2)C2=CN=NC2NC2=C1C(=O)NC(C)(C)C2 (stereo not given in full) [US20250313563, Compound 952754] | 6.00 to 7.00 | > 7.00 |
